Literature values, collected in patent US20200037638A1, “FORMULATIONS” (Molecular Infusions, LLC., priority 2017, published 2020).

For `CCCCCc1cc(O)c2c(c1)OC(C)(C)[C@@H]1CCC(C)=C[C@@H]21` [dronabinol, Δ9-tetrahydrocannabinol], the “Duration of appetite stimulant effect” value (after administration) is given as at least 24 h, the “Duration of action for psychoactive effects” value (after oral administration) is given as 4 to 6 h and the Onset of action (after oral administration) is given as 0.5 to 1 h. The “Peak effect (time)” value (after oral administration) was 2 to 4 h, the Absorbed (after single oral doses) was 90 to 95% and the “Administered dose reaching the systemic circulation” value (oral, first pass hepatic metabolism and high lipid solubility) was 10 to 20%.
